Assay results published in patent US10695275B2, “Anti-aging composition” (NEOPHARM CO., LTD., priority 2016, dated 2020).

Experiments:
Format in all cases: cell-based
[1] = tested on: human fibroblasts; experiment: type-1 collagen synthesis in human fibroblasts (PICP EIA kit); conditions: 24 hours
Protocol: N-(2-hydroxyethyl)octanamide was added to a culture medium of human fibroblasts (DMEM medium, 10% fetal bovine serum, 1% antibiotics) to confirm the effect of accelerating type-1 collagen synthesis in a cell level. The measurement of the synthesized collagen was qualified using a procollagen type I C-peptide enzyme immunoassay kit (PICP EIA kit).
The human fibroblast culture medium was used to aliquot the human-derived fibroblasts (human fibroblasts) into 6 wells at 2×10^5 cell/well. After cell adhesion was confirmed, the culture medium was treated with 2 ml of N-(2-hydroxyethyl)octanamide as an effective component (anti-aging composition) per each well, at a concentration of 20 uM. After the culture medium was cultured in an incubator under a condition of 37° C. and 5% CO2 for 24 hours, type-1 collagen which is related to a wrinkle forming factor was measured in a cell extract. Here, the concentration of the anti-aging composition is within a range being not toxic and not deriving cell proliferation, when treating human-derived fibroblasts. […]
The effect of accelerating type-1 collagen synthesis was confirmed in the same manner as in Example 1, except that the effective component was not used (a negative control). In addition, type-1 collagen synthesis ability relative to the negative control was calculated as a ratio, and represented by a rate of increase. […]

[2] = tested on: Artificial skin (EpiDermFT); experiment: collagen fiber staining (Masson's Trichrome) in artificial skin; conditions: 0.1%, 100 μl applied on the surface, 24 hours
Text: When photo-aging of the skin proceeds by ultraviolet rays, a collagen fiber network in an epidermis-dermis junction is damaged. Thus, the amount and form of collagen fiber is used as an indicator of skin photo-aging. The skin tissue of a hairless mouse which was irradiated with ultraviolet rays after N-(2-hydroxyethyl)octanamide was applied, was stained with Masson's Trichrome, observed using an optical microscope (IX71, Olympus, JPN), and then photographed using a digital camera (DP71, Olympus, JPN).
Artificial skin (EpiDermFT™ from MatTek, Ashland, USA) was purchased, and stabilized in an exclusive medium (EFT-400) for 18 hours. On the surface of the artificial skin, 100 μl of N-(2-hydroxyethyl)octanamide as an effective component (anti-aging composition) at a concentration of 0.1% was applied. After 24 hours, the artificial skin tissue was immobilized with 10% formaldehyde, and embedded with paraffin, and a tissue sliced at 5 μm was stained with Masson's Trichrome (M&T), thereby observing a staining degree of collagen fiber. The results were illustrated in the following FIG. 2.

[3] = tested on: human-derived fibroblasts; experiment: toxicity / cell proliferation in human-derived fibroblasts; conditions: concentration of 20 uM

## CCCCCCCC(=O)NCCO [Example 1, N-(2-hydroxyethyl)octanamide]
[1]; 20 uM, ratio to Comparative Example 1 (non-treated)
  Rate of increase (%) of type-1 collagen synthesis relative to negative control: 750%
[1]; human fibroblasts treated at 20 uM, measured in cell extract
  type-1 collagen concentration (20 uM): 0.015
[2]
  staining degree of collagen fiber (aniline blue) in the dermal layer under the epidermis: strongly stained
[3]
  toxicity to human-derived fibroblasts: not toxic
